Values after ≈ are worked out from the molar mass of the structure shown. Some results are limits rather than exact numbers.

Consider 104 compounds from PubChem BioAssay AID1996.

For the series the following is noted: buffer; pH 7.4; 200.0 µM.
One may read the solubility (kinetic) as solubility judged after dilution from a stock solution rather than from solid. In turn, `CC(C)c1nc(SCC(=O)NC2CCCCC2)c2ccccc2n1` gave a solubility (kinetic) of 1.8 µg/mL (≈ 5.24 µM). `O=C(COC(=O)c1ccc(O)cc1)Nc1ccc(OC(F)F)cc1` showed a solubility (kinetic) of 29.9 µg/mL (≈ 88.7 µM). Next, `Cc1cccc(N(Cc2cc3ccccc3[nH]c2=O)C(=O)c2cccs2)c1`: less than 0.4 µg/mL; `CC(C)NC(=O)c1ccc(CN2CCC(Cc3ccccc3)CC2)cc1`: 47.3 µg/mL (≈ 135 µM). With `CN(C)c1ccc(NC(=O)Cc2ccccc2)c2ccccc12` the figure was 5.3 µg/mL (≈ 17.4 µM); with `Cc1ccc(C(=O)N2CC(=O)NC(=O)C2)cc1`, 29.6 µg/mL (≈ 127 µM). With `COC(=O)Cn1cc(/C=C/[N+](=O)[O-])c2ccccc21` the figure was 30.6 µg/mL (≈ 118 µM); with `Cc1ccc(OC(C)C(=O)Nc2ccc(Cl)cn2)c([N+](=O)[O-])n1` (centres undefined), 18.7 µg/mL (≈ 55.5 µM). As to `Cc1ccc(N2CC(=O)Nc3c(sc4nc(C)cc(C)c34)C2=O)cc1`, the solubility (kinetic) is 0.6 µg/mL (≈ 1.71 µM). `Cc1cc(-n2c(C)cc(C(=O)CSc3ccccn3)c2C)no1`: the kinetic solubility was 33.4 µg/mL (≈ 102 µM). With `O=[N+]([O-])c1ccc(N2CCOCC2)cc1O` the figure was more than 33.6 µg/mL.

Compound `O=C(NC(=S)Nc1cccc2c(O)cccc12)c1ccco1` showed a kinetic solubility of 9.3 µg/mL (≈ 29.8 µM). As for `COCCNC(=S)N(C)C1(c2ccccc2Cl)CCCCC1=O` (centres undefined), the kinetic solubility is 48.2 µg/mL (≈ 136 µM). With `CC(C)C(=O)NCc1cc(-c2ccc(Cl)cc2)no1` the figure was 3 µg/mL (≈ 10.8 µM); with `CCOC(=O)COc1nc(-c2ccccc2)cc(-c2ccco2)c1C#N`, less than 0.4 µg/mL; with `COc1cccc(C(=O)NCc2ccc3c(c2)OCO3)c1OC`, more than 47.3 µg/mL. Next, `Cc1ccc2cccc(N)c2n1`: 19 µg/mL (≈ 120 µM); `O=C(Nc1ccc(Br)cc1)C1CC(c2c(F)cccc2Cl)=NO1` (centres undefined): 6.7 µg/mL (≈ 16.8 µM); `COc1ccc(C)cc1S(=O)(=O)n1cnc(C)c1`: more than 39.9 µg/mL. In the case of `CC(Cc1ccccc1)N1C(=O)c2ccccc2C1=O` (centres undefined), the kinetic solubility is 10.6 µg/mL (≈ 40 µM).

`CCc1ccccc1NC(=O)CNC(=O)c1ccc(OCc2cn3ccccc3n2)cc1`: the solubility (kinetic) worked out at 7.6 µg/mL (≈ 17.7 µM). As for `CC(C)CNC(=S)N1CCC(NC(=O)c2ccco2)CC1`, the kinetic solubility was 41.9 µg/mL (≈ 135 µM). With `CCC(OC(=O)c1nsc(Cl)c1Cl)C(=O)NCCOC` (centres undefined) the figure was more than 51.2 µg/mL; with `Oc1cccc(Nc2nc(N3CCOCC3)nc(N3CCOCC3)n2)c1`, 46.1 µg/mL (≈ 129 µM); with `CCOC(=O)c1c(NC(=O)COC(=O)c2cnccn2)sc(C)c1C`, 16.8 µg/mL (≈ 46.2 µM).

`COC(=O)C1CCN(C(=O)/C(C)=C\c2ccccc2)CC1` gave a kinetic solubility of 41 µg/mL (≈ 143 µM). Next, `Cc1ccc(C(=O)COC(=O)C(C)N2C(=O)C3C4C=CC(C4)C3C2=O)cc1C` (centres undefined): 55.5 µg/mL (≈ 146 µM); `Cc1cc(C)c(C)c(S(=O)(=O)NC2CCCCC2)c1C`: less than 0.6 µg/mL. With `Cc1ccccc1OCC(=O)N1CCc2ccccc2C1` the figure was 38.6 µg/mL (≈ 137 µM); with `O/N=C/c1ccc2cccc(OCc3ccccc3)c2n1`, 2.1 µg/mL (≈ 7.55 µM). Next, `CCOc1ccccc1NC(=O)Nc1cc(S(=O)(=O)N(C)C)ccc1C`: 0.6 µg/mL (≈ 1.59 µM); `C[C@@H](C(=O)Nc1ccccc1N1CCOCC1)N1C(=O)C2CCCCC2C1=O` (some centres undefined): more than 57.8 µg/mL; `Cc1cc(C(=O)Nc2ccc(F)cc2C)cs1`: 24.4 µg/mL (≈ 97.9 µM). As for `CCOC(=O)N1CCN(c2ccccc2OC)CC1`, the solubility (kinetic) was more than 39.6 µg/mL. With `CN1c2ccccc2C(=O)C(=C2SCCCS2)S1(=O)=O` the figure was 27 µg/mL (≈ 82.5 µM). Next, `CN(CCO)C(=O)C(c1ccccc1)c1ccccc1`: 36.2 µg/mL (≈ 134 µM); `CNC(=O)Oc1ccc2c(c1)[C@]1(C)CCN(C)C1N2C.O=C(O)c1ccccc1O` (some centres undefined): more than 62 µg/mL; `O=C(CNCc1ccccc1Cl)Nc1cc(S(=O)(=O)N2CCOCC2)ccc1Cl`: 14.5 µg/mL (≈ 31.6 µM). Turning to `CN(C(=O)CSc1cccc[n+]1[O-])c1ccccc1`, the kinetic solubility is 35.5 µg/mL (≈ 129 µM). Next, `CCOC(=O)c1sc(NC(=O)CN2CC(C)OC(C)C2)nc1C` (centres undefined): 49 µg/mL (≈ 144 µM); `O=C(O)c1cccc(Cl)n1`: more than 23.6 µg/mL; `CCCCCCC1CC(=O)NC(=S)N1` (centres undefined): 28.4 µg/mL (≈ 133 µM). Next, `CC(C)CCN1C(=O)C2(OCCCO2)c2cc(Cl)ccc21`: 3 µg/mL (≈ 9.68 µM); `O=C(O)c1cc(O)ccc1NC(=O)c1cccc2ccccc12`: more than 46.1 µg/mL; `CCOC(=O)C(C)Sc1nc(N2CCOCC2)c2c(c1C#N)CC(C)(C)OC2` (centres undefined): 38.8 µg/mL (≈ 95.7 µM). With `CN(C)C(=O)Oc1ccc2c(c1)O/C(=C\c1ccc(Cl)cc1)C2=O` the figure was 0.9 µg/mL (≈ 2.62 µM); with `COc1cc2c(cc1NC(=O)COCC(=O)O)oc1ccccc12`, more than 49.4 µg/mL; with `O=c1c(-c2ccccc2)cnc2n1CCS2`, more than 34.5 µg/mL.

Consider `O=c1c2ccccc2nc(Cc2ccccc2)n1-c1cccc(O)c1`, for which the solubility (kinetic) is 6 µg/mL (≈ 18.3 µM). With `N#CC(CC(=O)c1ccc(F)cc1)c1ccc2c(c1)OCO2` (centres undefined) the figure was 1.2 µg/mL (≈ 4.04 µM); with `ON(Cc1c(F)cccc1Cl)Cc1c(F)cccc1Cl`, 0.9 µg/mL (≈ 2.83 µM). Next, `Cc1nc2cc(NC(=O)Nc3ccccc3Cl)ccc2n1C`: 7.4 µg/mL (≈ 23.5 µM); `CCCOc1ccc(C(=O)Nc2ccc(CN3CCOCC3)cc2)cc1`: 4.1 µg/mL (≈ 11.6 µM); `Cc1cccc(NC(=O)c2ccc([N+](=O)[O-])s2)n1`: 9.5 µg/mL (≈ 36.1 µM). Next, `CNc1nc(Cl)c(SC)c(NCc2ccc(F)cc2)n1`: 0.6 µg/mL (≈ 1.92 µM); `CSC1=C(C#N)C(c2ccncc2)C(C(=O)Nc2ccccc2)=C(C)N1` (centres undefined): 52.5 µg/mL (≈ 145 µM); `CCS(=O)(=O)N1CCC(C(=O)Nc2cc([N+](=O)[O-])ccc2C)CC1`: more than 53.3 µg/mL. `COc1ccc(NC(=S)Nc2ccccc2)c(OC)c1`: the solubility (kinetic) was more than 43.3 µg/mL.

As for `CC1C(=O)Nc2ccccc2N1C(=O)c1ccc(Cl)cc1` (centres undefined), the solubility (kinetic) was 27.4 µg/mL (≈ 91.1 µM).

Turning to `O=CN1CCN(C(=O)c2ccc(Br)o2)CC1`, the kinetic solubility is more than 43.1 µg/mL. Next, `CC1CCN(C(=O)NC(=O)c2ccccc2)CC1`: more than 36.9 µg/mL; `S=c1nc(NCCc2ccccc2Cl)c2ccccc2[nH]1`: 0.2 µg/mL (≈ 0.633 µM). Next, `Cc1ccccc1Nc1ncc(C#N)c(N)n1`: 31.6 µg/mL (≈ 140 µM). With `CCn1ccnc1CN(C)Cc1nc(CCC(C)C)no1` the figure was 38.4 µg/mL (≈ 132 µM); with `CC(OC(=O)c1cccs1)C(=O)NC1CC1` (centres undefined), more than 35.9 µg/mL. Compound `COc1cccc(NC(=O)Nc2ccc(Br)cn2)c1` returned a solubility (kinetic) of less than 0.2 µg/mL.

In turn, `CN(CC(=O)Nc1cccc2ccccc12)C(=O)c1ccc(NC(=O)CC#N)cc1` showed a kinetic solubility of more than 60.1 µg/mL. Next, `Cl.OC(CN1CCOCC1)c1csc2ccccc12` (centres undefined): 43.6 µg/mL. With `CC1CCN(C(=O)CN(Cc2ccc(F)cc2)S(C)(=O)=O)CC1` the figure was more than 51.4 µg/mL; with `O=[N+]([O-])c1ccccc1CSc1ccccn1`, 13.7 µg/mL (≈ 55.6 µM). With `O=[N+]([O-])c1ccc(N2CCN(c3ccc(O)cc3)CC2)cn1` the figure was more than 45 µg/mL; with `COc1nc(N)nc(NC(=O)c2cccs2)c1N=O`, 25.2 µg/mL (≈ 90.2 µM); with `O=C(COC(=O)c1nsc(Cl)c1Cl)NC1CCCCC1`, more than 50.6 µg/mL. `CCC(=O)N1CCN=C1SCc1cccc(F)c1` displayed a solubility (kinetic) of more than 39.9 µg/mL. Next, `Cc1cc(N2CCCC2)ccc1C=C(C#N)C#N`: 0.5 µg/mL (≈ 2.11 µM); `CC(=O)c1ccc(NC(=O)Cc2ccsc2)cc1`: more than 38.9 µg/mL; `O=c1nc(/C=C/c2ccc(Cl)cc2Cl)cc(C(F)(F)F)[nH]1`: 7.3 µg/mL (≈ 21.8 µM). Next, `O=C(Cn1c(=O)n(CC2CS2)c2ccccc21)N1CCCCC1` (centres undefined): more than 49.7 µg/mL. Next, `Cn1cccc1C(=O)OCC(=O)N1c2ccccc2NC(=O)C1(C)C`: 12.7 µg/mL (≈ 37.2 µM); `Cc1cc(C(=O)COC(=O)c2cccn2C)c(C)n1Cc1ccco1`: 2.8 µg/mL (≈ 8.23 µM).

Regarding `COc1ccc(CCOC(=O)c2ccc(NC(=O)CC#N)cc2)cc1`, the solubility (kinetic) worked out at 4.1 µg/mL (≈ 12.1 µM). In turn, `Cc1[nH]nc(SCC(=O)Nc2cccc(O)c2)c1[N+](=O)[O-]` had a solubility (kinetic) of more than 46.2 µg/mL. Next, `CCC(=O)c1cc(F)ccc1OCC(=O)Nc1ccc2c(c1)OCCO2`: 6.2 µg/mL (≈ 17.3 µM); `COc1cc(C(=O)N2CCN(C3CCCCC3)CC2)cc(OC)c1OC.O=C(O)C(=O)O`: more than 67.9 µg/mL; `Clc1ccc(C2CSc3c4ncnc-4ncn32)cc1` (centres undefined): 33.9 µg/mL (≈ 117 µM). With `CCOC(=O)c1cccc(C(=O)Nc2nc3ccc(OC)cc3s2)n1` the figure was less than 0.3 µg/mL; with `CCS(=O)(=O)N1CCC(C(=O)Oc2ccccc2Cl)CC1`, 46 µg/mL (≈ 139 µM). With `Cc1cc(C)c(C#N)c(Nc2ccc(F)cc2)n1` the figure was 0.8 µg/mL (≈ 3.32 µM); with `CC1CCCC(NC(=O)COc2ncnc3ccccc23)C1C` (centres undefined), 44.6 µg/mL (≈ 142 µM). The compound `CN(c1ccccc1)S(=O)(=O)c1ccc(-c2ccccc2)cc1` registered a kinetic solubility of less than 0.7 µg/mL.

With `Cn1c(=O)n(C)c2cc([N+](=O)[O-])c(N3CCNCC3)cc21`, the kinetic solubility is more than 43.7 µg/mL. With `CSc1ncc(C(=O)Nc2ccc(C(C)=O)cc2)c(C)n1` the figure was more than 45.2 µg/mL; with `Cc1ccc(NC(=O)c2cccnc2)cc1S(=O)(=O)N(C)C`, more than 47.9 µg/mL.

For `CCCCN(C(=O)Nc1ccccc1)C1CCS(=O)(=O)C1` (centres undefined), the solubility (kinetic) is more than 46.6 µg/mL. In turn, `O=C(Sc1ccc(Cl)cc1)c1ccccn1` came in with a solubility (kinetic) of 1.7 µg/mL (≈ 6.81 µM). With `COc1ccc(NC(=O)N2CCCCCC2)cc1OC` the figure was more than 41.8 µg/mL; with `O=C(CSc1nccc(-c2cccs2)n1)Nc1ccc(F)c(Cl)c1`, 1.4 µg/mL (≈ 3.69 µM). In the case of `O=C(OCC(=O)N1CCc2ccccc21)[C@@H]1CC(O)CN1S(=O)(=O)c1ccc(Cl)cc1` (some centres undefined), the kinetic solubility was 50.4 µg/mL (≈ 108 µM). Take `CC(Oc1ccccc1F)C(=O)NC1CCS(=O)(=O)C1` (centres undefined): the solubility (kinetic) is more than 45.2 µg/mL. Next, `O=S(=O)(c1ccc(Cl)cc1)N1CCCCCC1`: 11.4 µg/mL (≈ 41.6 µM). With `Cc1ccc(NC(=O)C2C3CCC(O3)C2C(=O)O)cc1C` (centres undefined) the figure was more than 43.4 µg/mL. With `CCOC(=O)c1c(C)[nH]c(C)c1C(=O)COC(=O)c1cccs1` the figure was more than 50.3 µg/mL. On to `COc1ccc(/C=C2\CCc3ccccc3C2=O)cc1CN1CCOCC1`, for which the solubility (kinetic) was found to be 23.9 µg/mL (≈ 65.8 µM). Next, `COc1ccc(/C=C(\C#N)C(=O)c2cccn2C)cc1`: 5 µg/mL (≈ 18.8 µM).
